From patent publication US20250340529A1, “Heterocyclic Compounds as Immunomodulators of PD-L1 Interactions” (Ascletis BioScience Co., Ltd, priority 2021, published 2025)

Tests used:
[1] = test system: Hep3B-OS8-hPDL1 cells and CD3+ T cells; assay: Hep3B-OS8-hPDL1 and T cells co-culture assay (IFN-γ by ELISA); format: cell-based; conditions: Homo sapiens, T-cell, 72 hours, read-out: Tumor and T Cell EC50 (nm)
Method: a. Hep3B-OS8-hPDL1 and T Cells Co-Culture Assay
• 1. Hep3B-OS8-hPDL1 cells were cultured in 1640 medium supplemented with 10% fetal bovine serum, 1% penicillin and streptomycin, in which 100 μg/mL G418 and Hygromycin B were also added. • 2. Hep3B-OS8-hPDL1 cells were harvested and treated with 10 μg/mL mitomycin C at 37° C. for 1.5 h, and the cells were then washed thoroughly with PBS for four times. • 3. Cells were re-suspended with RPMI 1640 medium containing 10% FBS and the cell density was adjusted to 5E5 cells/mL. • 4. Cells were seeded into 96-well flat bottom plate (2.5E4 cells/50 μL/well). b. CD3+ T Cells Isolation (30 mL Blood) • 5. The human blood sample from an individual donor is diluted by the same volume of sterile PBS, for instance add 25 mL sterile PBS into 25 mL fresh whole blood and mix sufficiently by gentle shake. • 6. Transfer 15 mL Lymphoprep medium into a new 50 mL centrifuge tube. • 7. Add the diluted blood sample as soft as possible onto the surface of the Ficoll medium to make sure there is a clear dividing line between the two liquids, and the volume ratio between Ficoll and diluted blood (30 mL) is 1:2. • 8. Move the tube gently to centrifuge, at 1000×g, 25 min, 20° C., with the acceleration (5) and Min deceleration (0) settings during the centrifugation. • 9. Four interfaces in all could be observed after the centrifugation, which are layers of plasma, mononuclear cells, the Ficoll medium and RBCs from top to bottom, and move the tube as gently as possible so as keep the four interfaces separated. Absorb and transfer the second layer of mononuclear cells into another new sterile centrifuge tube carefully, and absorb certain volume of plasma instead of the Ficoll medium if inevitable. • 10. Add sterile PBS of the three times the volume of PBMCs in the tube with PBMC. • 11. Wash the cells twice with 5-10 mL PBS before cell counting with cytometer. Centrifuge at 350×g, 10 min, 20° C. With the acceleration (5) and deceleration (5) settings during the centrifugation. • 12. Resuspend the cells with recommended medium and adjust the density of the PBMCs to the final concentration of 5E7 cells/mL. • 13. Isolate CD3+ T cells with EasySep™ Human T Cell Isolation Kit (STEMCELL Technologies #17951), and the cells were seeded into 96-well flat bottom plate (5E4 cells/100 μL/well). c. Compounds solutions preparation • 14. Prepare the Compounds dilutions in RPMI 1640 medium with 10% FBS according to the Layout. 15. Add compounds into each well in a volume of 50 μL. {3 compounds (GLC01-258, GLC01-269, GLC01-465) in 7 concentrations (0.03, 0.1, 0.3, 1, 3, 10 and 30 μM) and 6 compounds (GLC01-411, GLC01-292, GLC01-445, GLC01-475, GLC01-470 and GLC01-468) in the same concentration (1 μM)}. • 16. […]

[2] = test system: Hep3B-OS8-hPDL1 / Jurkat-NFAT-PD1 cells; assay: PDL1 Jurkat-NFAT reporter assay; format: cell-based; conditions: Homo sapiens; 6 hours, luciferase
Method: PDL1 Jurkat-NFAT Reporter Assay
a. Preparation of Hep3B-OS8-hPDL1 • 1. Hep3B-OS8-hPDL1 cells were cultured in 1640 medium supplemented with 10% fetal bovine serum, 1% penicillin and streptomycin, in which 100 μg/mL G418 and Hygromycin B were also added. • 2. Cells were re-suspended with RPMI 1640 medium containing 10% FBS and the cell density was adjusted to 1.25E5 cells/mL. • 3. Cells were seeded into 96-well flat bottom plate (1.25E4 cells/100 μL/well). b. Compounds Solutions Preparation • 4. Remove the medium from pre-plated Hep3B-OS8-PDL1 cells. Wash once with 200 μL Assay Medium. • 5. Prepare the Compounds dilutions in RPMI 1640 medium with 10% FBS according to the Layout. • 6. Add compounds into each well in a volume of 50 μL in 9 concentrations (3, 1, 0.3, 0.1, 0.03, 0.01, 0.003, 0.001 and 0.0003 μM)}. Keytruda will be included as positive control at the concentration of 5 μg/mL. • 7. Incubate for 20-30 min at 37° C., 5% CO2. c. Preparation of Jurkat-NFAT-PD1 • 8. Jurkat-NFAT-PD1 cells were cultured in 1640 medium supplemented with 10% fetal bovine serum, 1% penicillin and streptomycin, in which 1000 μg/mL Hygromycin B and 0.3 μg/mL puromycin were also added. • 9. On the second day of assay, the cells were re-suspended with RPMI 1640 medium containing 10% FBS and the cell density was adjusted to 2.5E5 cells/mL. • 10. […]

PD-1/PD-L1 = PD-1/PD-L1 (Homo sapiens (Human), UniProt Q9NZQ7); assay: PD-1/PD-L1 Homogeneous Time-Resolved Fluorescence (HTRF) binding assay; conditions: 3 nM PD1, 10 nM PD-L1, 25° C., PBS pH 7.4
Sequence of PD-1/PD-L1 (Q9NZQ7 19-238): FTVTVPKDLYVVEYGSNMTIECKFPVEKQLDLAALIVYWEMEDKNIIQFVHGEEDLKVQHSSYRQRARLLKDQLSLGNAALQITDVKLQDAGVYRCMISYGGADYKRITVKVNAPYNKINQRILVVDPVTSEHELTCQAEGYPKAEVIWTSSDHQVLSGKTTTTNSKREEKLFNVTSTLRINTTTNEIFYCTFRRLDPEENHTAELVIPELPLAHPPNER
Outline: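 HTRF with His-tagged human PD-L1 (19-238, 10 nM) and Fc-tagged human PD-1 (25-167, 3 nM) preincubated with inhibitors 40 min in PBS pH 7.4, 0.05% Tween-20, 0.1% BSA, 1% DMSO, 25° C. Eu anti-human IgG and anti-His-APC added, 60 min; 665/620 nm ratio; IC50 from percent control activity fit.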

EC50 [1] [nM] | EC50 [2] [nM] | IC50 (PD-1/PD-L1) [nM] | SMILES
1.2 | 0.3 | 3.58 | O=C(O)[C@H](CO)NCCN1C(=O)COc2cc(-c3cccc(-c4cccc(-c5ccc6c(c5)OCC(=O)N6CCN[C@@H](CO)C(=O)O)c4Cl)c3Cl)ccc21 [Compound 465]
325 | 111 | 8.62 | O=C1COc2cc(-c3cccc(-c4cccc(-c5ccc6c(c5)OCC(=O)N6C[C@H]5CCCN5)c4Cl)c3Cl)ccc2N1C[C@H]1CCCN1 [Compound 529]
